Read-outs that look alike come from different tables or passages of the source.
Columns and labels:
[1] = test system: db/db mice; experiment: In vivo assay in db/db mice (blood glucose, body weight, food consumption); settings: 250 nmole/kg s.c.
[2] = Plasma protease stability; assay type: in vitro ADME; settings: incubation at 30 degC, t=0-8 hrs, LC-MS (FIG. 8)
Protocol: Standard and QC Sample Preparation: i. […] Make standard working solutions in 50% CH3CN with the stock solution. […] Spiked 10 μL of the working solutions into 90 μL blank plasma and vortex them, iv. […] Transfer the supernatant into an HPLC injection plate for loading on the HPLC column, vi.

[3] = biological target: T1, glucagon R (Homo sapiens, UniProt P47871); experiment: DiscoveRx LeadHunter cellular assay, cAMP stimulation, glucagon receptor; assay type: cell-based; settings: human receptor cloned into CHO cells
T1 construct: host or cells: CHO cells
Protocol: (§1) A further series of cellular assays were carried out using standard cellular assays (DiscoveRx, LeadHunter assays) using readout of cAMP stimulation or arrestin activation. Compounds were weighed precisely in an amount of approximately 1 mg and shipped to DiscoveRx for dilution and assay.

[4] = biological target: T2, GLP-1 R (Homo sapiens, UniProt P43220); experiment: DiscoveRx LeadHunter cellular assay, cAMP stimulation, GLP-1 receptor; assay type: cell-based; settings: human receptor cloned into CHO cells
T2 construct: host or cells: CHO cells
T2 sequence (P43220 24-463): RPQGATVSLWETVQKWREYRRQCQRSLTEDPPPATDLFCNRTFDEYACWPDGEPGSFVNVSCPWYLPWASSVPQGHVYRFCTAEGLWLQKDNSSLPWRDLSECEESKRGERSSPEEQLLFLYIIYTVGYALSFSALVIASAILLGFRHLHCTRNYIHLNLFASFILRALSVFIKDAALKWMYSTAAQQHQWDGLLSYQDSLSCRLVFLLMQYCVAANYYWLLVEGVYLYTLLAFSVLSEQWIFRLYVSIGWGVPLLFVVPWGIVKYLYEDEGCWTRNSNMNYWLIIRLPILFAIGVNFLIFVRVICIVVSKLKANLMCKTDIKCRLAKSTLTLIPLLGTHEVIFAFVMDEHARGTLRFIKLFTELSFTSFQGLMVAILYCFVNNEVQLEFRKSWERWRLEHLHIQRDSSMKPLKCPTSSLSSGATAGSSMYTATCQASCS
Protocol: as §1

T1 sequence (P47871 26-477): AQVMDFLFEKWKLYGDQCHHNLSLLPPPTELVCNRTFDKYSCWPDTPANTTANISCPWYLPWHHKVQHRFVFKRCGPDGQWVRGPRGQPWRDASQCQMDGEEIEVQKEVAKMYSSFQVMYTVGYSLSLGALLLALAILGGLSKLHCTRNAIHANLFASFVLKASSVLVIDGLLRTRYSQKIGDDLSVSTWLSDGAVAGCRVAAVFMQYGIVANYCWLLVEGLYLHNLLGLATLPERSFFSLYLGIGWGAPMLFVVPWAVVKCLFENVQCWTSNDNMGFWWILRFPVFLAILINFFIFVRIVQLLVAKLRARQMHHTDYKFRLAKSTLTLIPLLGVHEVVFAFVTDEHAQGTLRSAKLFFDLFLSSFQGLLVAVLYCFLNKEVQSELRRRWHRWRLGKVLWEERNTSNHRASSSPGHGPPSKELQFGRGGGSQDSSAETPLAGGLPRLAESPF

With `CCCCCCCCCCCCO[C@@H]1O[C@H](C(=O)NCCCC[C@H](NC(=O)[C@@H](NC(=O)[C@H](Cc2ccccc2)NC(=O)[C@H](CCC(=O)O)NC(=O)[C@@H]2CCCCNC(=O)CC[C@H](NC(=O)[C@H](CC(=O)O)NC(=O)[C@H](CC(C)C)NC(=O)[C@H](Cc3ccc(O)cc3)NC(=O)[C@H](CCCCN)NC(=O)[C@H](CO)NC(=O)[C@H](Cc3ccc(O)cc3)NC(=O)[C@H](CC(=O)O)NC(=O)[C@H](CO)NC(=O)[C@@H](NC(=O)[C@H](Cc3ccccc3)NC(=O)[C@@H](NC(=O)CNC(=O)[C@H](CCC(N)=O)NC(=O)C(C)(C)NC(=O)[C@@H](N)Cc3c[nH]cn3)[C@@H](C)O)[C@@H](C)O)C(=O)N[C@@H](CCC(N)=O)C(=O)N[C@@H](C)C(=O)N[C@@H](C)C(=O)N2)[C@@H](C)CC)C(=O)N[C@@H](Cc2c[nH]c3ccccc23)C(=O)N[C@@H](CC(C)C)C(=O)N[C@@H](CC(C)C)C(=O)N[C@@H](CCC(N)=O)C(=O)N[C@H](C(N)=O)[C@@H](C)O)[C@@H](O)[C@H](O)[C@H]1O` [EU-A993, His1-Aib2-Gln3-Gly4-Thr5-Phe6-Thr7-Ser8-Asp9-Tyr10-Ser11-Lys12-Tyr13-Leu14-Asp15-Glu*16-Gln17-Ala18-Ala19-Lys*20-Glu21-Phe22-Ile23-Lys(N-omega(1-dodecylbeta-D-glucuronyl))24-Trp25-Leu26-Leu27-Gln28-Thr29-NH2] the “db/db mice - Mean Blood Glucose” value ([1]; 0 hr) was 503 mg/dL, the “db/db mice - Mean Blood Glucose” value ([1]; 10 hr) was 305 mg/dL and the “db/db mice - Mean Blood Glucose” value ([1]; 24 hr) was 324 mg/dL. The “db/db mice - Mean Blood Glucose” value ([1]; 48 hr) was 426 mg/dL and the “amount of intact compound in the human plasma versus time” value [2] was “essentially no change over 8 hrs”.

Work on `CCCCCCCCCCCCCCO[C@H]1O[C@H](CO[C@H]2O[C@H](C(=O)NCCCC[C@@H]3NC(=O)[C@@H](NC(=O)[C@H](CC(=O)O)NC(=O)[C@H](CC(C)C)NC(=O)[C@H](Cc4ccc(O)cc4)NC(=O)[C@H](CCCCN)NC(=O)[C@H](CO)NC(=O)[C@H](Cc4ccc(O)cc4)NC(=O)[C@H](CC(=O)O)NC(=O)[C@H](CO)NC(=O)[C@@H](NC(=O)[C@H](Cc4ccccc4)NC(=O)[C@@H](NC(=O)CNC(=O)[C@H](CCC(N)=O)NC(=O)C(C)(C)NC(=O)[C@@H](N)Cc4c[nH]cn4)[C@@H](C)O)[C@@H](C)O)CCC(=O)NCCCC[C@@H](C(=O)N[C@@H](CCC(=O)O)C(=O)N[C@@H](Cc4ccccc4)C(=O)N[C@H](C(=O)N[C@@H](CCC(N)=O)C(=O)N[C@@H](Cc4c[nH]c5ccccc45)C(=O)N[C@@H](CC(C)C)C(=O)N[C@@H](CC(C)C)C(=O)N[C@@H](CCC(N)=O)C(=O)N[C@H](C(N)=O)[C@@H](C)O)[C@@H](C)CC)NC(=O)[C@H](C)NC(=O)[C@H](C)NC3=O)[C@H](O)[C@H](O)[C@H]2O)[C@@H](O)[C@H](O)[C@H]1O` [EU-A1587, His1-Aib2-Gln3-Gly4-Thr5-Phe6-Thr7-Ser8-Asp9-Tyr10-Ser11-Lys12-Tyr13-Leu14-Asp15-Glu*16-Lys (N-omega (1-tetradecyl alpha-D-melibiouronyl)) 17 Ala18-Ala19-Lys*20-Glu21-Phe22-Ile23-Gln24-Trp25-Leu26-Leu27-Gln28-Thr29-NH2] yielded an EC50 [3] of 0.253 nM and an EC50 [4] of 0.081 nM.

With `CC[C@H](C)[C@H](NC(=O)[C@H](Cc1ccccc1)NC(=O)[C@H](CCC(=O)O)NC(=O)[C@H](CCCCN)NC(=O)[C@H](C)NC(=O)[C@H](C)NC(=O)[C@H](CCC(N)=O)NC(=O)CNC(=O)[C@H](CCC(=O)O)NC(=O)[C@H](CC(C)C)NC(=O)[C@H](Cc1ccc(O)cc1)NC(=O)[C@H](CO)NC(=O)[C@H](CO)NC(=O)[C@@H](NC(=O)[C@H](CC(=O)O)NC(=O)[C@H](CO)NC(=O)[C@@H](NC(=O)[C@H](Cc1ccccc1)NC(=O)[C@@H](NC(=O)CNC(=O)[C@H](CCC(=O)O)NC(=O)[C@H](C)NC(=O)[C@@H](N)Cc1c[nH]cn1)[C@@H](C)O)[C@@H](C)O)C(C)C)C(=O)N[C@@H](C)C(=O)N[C@@H](Cc1c[nH]c2ccccc12)C(=O)N[C@@H](CC(C)C)C(=O)N[C@H](C(=O)N[C@@H](CCCCN)C(=O)NCC(=O)N[C@@H](CCCNC(=N)N)C(N)=O)C(C)C` [GIP-1 (7-36), reference compound] the “amount of intact compound in the human plasma versus time” value [2] was “rapid decrease”.

Work on `CCCCCCCCCCCCCCCCCCO[C@H]1O[C@H](CO[C@H]2O[C@H](C(=O)NCCCC[C@@H]3NC(=O)[C@@H](NC(=O)[C@H](CC(=O)O)NC(=O)[C@H](CC(C)C)NC(=O)[C@H](Cc4ccc(O)cc4)NC(=O)[C@H](CCCCN)NC(=O)[C@H](CO)NC(=O)[C@H](Cc4ccc(O)cc4)NC(=O)[C@H](CC(=O)O)NC(=O)[C@H](CO)NC(=O)[C@@H](NC(=O)[C@H](Cc4ccccc4)NC(=O)[C@@H](NC(=O)CNC(=O)[C@H](CCC(N)=O)NC(=O)C(C)(C)NC(=O)[C@@H](N)Cc4c[nH]cn4)[C@@H](C)O)[C@@H](C)O)CCC(=O)NCCCC[C@@H](C(=O)N[C@@H](CCC(=O)O)C(=O)N[C@@H](Cc4ccccc4)C(=O)N[C@H](C(=O)N[C@@H](CCC(N)=O)C(=O)N[C@@H](Cc4c[nH]c5ccccc45)C(=O)N[C@@H](CC(C)C)C(=O)N[C@@H](CC(C)C)C(=O)N[C@@H](CCC(N)=O)C(=O)N[C@H](C(N)=O)[C@@H](C)O)[C@@H](C)CC)NC(=O)[C@H](C)NC(=O)[C@H](C)NC3=O)[C@H](O)[C@H](O)[C@H]2O)[C@@H](O)[C@H](O)[C@H]1O` [EU-A1589, His1-Aib2-Gln3-Gly4-Thr5-Phe6-Thr7-Ser8-Asp9-Tyr10-Ser11-Lys12-Tyr13-Leu14-Asp15-Glu*16Lys (N-omega (1-octadecyl alpha-D-melibiouronyl)) 17 Ala18-Ala19-Lys*20-Glu21-Phe22-Ile23-Gln24-Trp25-Leu26-Leu27-Gln28-Thr29-NH2] yielded an EC50 [3] of 0.655 nM and an EC50 [4] of 0.236 nM.

`CCCCCCCCCCCCO[C@@H]1O[C@H](CO[C@H]2O[C@H](C(=O)NCCCC[C@H](NC(=O)[C@@H](NC(=O)[C@H](Cc3ccccc3)NC(=O)[C@H](CCC(=O)O)NC(=O)[C@@H]3CCCCNC(=O)CC[C@H](NC(=O)[C@H](CC(=O)O)NC(=O)[C@H](CC(C)C)NC(=O)[C@H](Cc4ccc(O)cc4)NC(=O)[C@H](CCCCN)NC(=O)[C@H](CO)NC(=O)[C@H](Cc4ccc(O)cc4)NC(=O)[C@H](CC(=O)O)NC(=O)[C@H](CO)NC(=O)[C@@H](NC(=O)[C@H](Cc4ccccc4)NC(=O)[C@@H](NC(=O)CNC(=O)[C@H](CCC(N)=O)NC(=O)C(C)(C)NC(=O)[C@@H](N)Cc4c[nH]cn4)[C@@H](C)O)[C@@H](C)O)C(=O)N[C@@H](CCC(N)=O)C(=O)N[C@@H](C)C(=O)N[C@@H](C)C(=O)N3)[C@@H](C)CC)C(=O)N[C@@H](Cc3c[nH]c4ccccc34)C(=O)N[C@@H](CC(C)C)C(=O)N[C@@H](CC(C)C)C(=O)N[C@@H](CCC(N)=O)C(=O)N[C@H](C(=O)NCCOCCOCCOCCOCCC(=O)O)[C@@H](C)O)[C@H](O)[C@H](O)[C@H]2O)[C@@H](O)[C@H](O)[C@H]1O` [EU-A1639] gave an EC50 ([3]; read-out: EC50 cAMP glucagon R) of 2.29 nM and an EC50 [4] of 0.385 nM.

— patent US20250313604A1, “PEPTIDE PHARMACEUTICALS FOR INSULIN RESISTANCE” (Mederis Diabetes LLC, priority 2014, published 2025)
